Data taken from ChEMBL document CHEMBL5532731, “Structural Modifications of Covalent Cathepsin S Inhibitors: Impact on Affinity, Selectivity, and Permeability” (ACS Med Chem Lett, 2024).
Active and inactive are the calls of the source. The rule behind the calls is not given here. Starred links: 1 amine or outer side, 2 acyl side, 3 side chain; linkers in the order of their positions; H or OH if unused. Non-standard residues stand in square brackets, D forms with d. Residues, ends and D or L forms follow the SMILES beside them. *: point of attachment. Cha = N[C@@H](CC1CCCCC1)C(=O)O; Morpholide = C1CN(*)CCO1; CO = O=C([*:1])[*:2]; Bn = c1ccc(C*)cc1; CH2Cl = ClC*

Key:
[1] = target: T1, Cathepsin S (Homo sapiens, UniProt P25774); experiment: Binding affinity to recombinant Cathepsin S (unknown origin) expressed in Escherichia coli using Z-Val-Val-Arg-AMC as substrate assessed as second-order rate constant (K) for irreversible binding by fluorescence based assay
Target sequence in this assay (P25774 115-331 limits assumed): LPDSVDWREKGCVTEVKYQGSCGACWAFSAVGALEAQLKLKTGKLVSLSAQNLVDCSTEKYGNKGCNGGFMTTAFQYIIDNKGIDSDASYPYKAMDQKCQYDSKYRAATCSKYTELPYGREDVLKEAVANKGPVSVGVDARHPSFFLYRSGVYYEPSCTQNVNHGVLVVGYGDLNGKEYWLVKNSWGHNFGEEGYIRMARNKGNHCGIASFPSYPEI

[2] = target: T1, Cathepsin S; experiment: Inhibition of recombinant Cathepsin S (unknown origin) expressed in Escherichia coli using Z-Val-Val-Arg-AMC as substrate by fluorescence based assay
Target sequence in this assay (P25774 whole entry): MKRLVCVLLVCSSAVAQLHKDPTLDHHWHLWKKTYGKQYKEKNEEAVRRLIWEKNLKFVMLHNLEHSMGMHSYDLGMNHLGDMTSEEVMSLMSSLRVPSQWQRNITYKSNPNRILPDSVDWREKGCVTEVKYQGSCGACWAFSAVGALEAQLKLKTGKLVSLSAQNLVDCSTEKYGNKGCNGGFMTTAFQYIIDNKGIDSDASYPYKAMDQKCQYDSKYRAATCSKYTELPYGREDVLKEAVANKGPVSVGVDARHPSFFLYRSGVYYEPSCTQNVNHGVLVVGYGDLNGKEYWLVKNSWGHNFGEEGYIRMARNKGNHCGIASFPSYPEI

[3] = target: T1, Cathepsin S; experiment: Binding affinity to recombinant Cathepsin S (unknown origin) expressed in Escherichia coli using Z-Val-Val-Arg-AMC as substrate assessed as Kinact for irreversible binding by fluorescence based assay
Target sequence in this assay (P25774 115-331 limits assumed): as the sequence (P25774 115-331 limits assumed) above

[4] = target: T1, Cathepsin S; experiment: Irreversible binding affinity to recombinant Cathepsin S (unknown origin) expressed in Escherichia coli incubated for 60 mins followed by substrate addition by fluorescence based dilution assay
Target sequence in this assay (P25774 115-331 limits assumed): as above

[5] = target: Procathepsin L (Homo sapiens, UniProt P07711); experiment: Inhibition of human Cathepsin L using Z-Phe-Arg-AMC as substrate by fluorescence based assay
[6] = target: Cathepsin B (Homo sapiens, UniProt P07858); experiment: Inhibition of human Cathepsin B using Z-Phe-Arg-AMC as substrate by fluorescence based assay
[7] = target: T1, Cathepsin S; experiment: Inhibition of Cathepsin S (unknown origin)
Target sequence in this assay (P25774 whole entry): as the sequence (P25774 whole entry) above

[8] = Permeability of compound measured after 7 hrs by PAMPA; type: ADME; conditions: read-out: permeability
[9] = Selectivity index, ratio of Ki for human Cathepsin B using Z-Phe-Arg-AMC as substrate to Ki for recombinant Cathepsin S (unknown origin) expressed in Escherichia coli using Z-Val-Val-Arg-AMC as substrate
[10] = Selectivity index, ratio of Ki for human Cathepsin L using Z-Phe-Arg-AMC as substrate to Ki for recombinant Cathepsin S (unknown origin) expressed in Escherichia coli using Z-Val-Val-Arg-AMC as substrate
[11] = target: T1, Cathepsin S; experiment: Binding affinity to recombinant Cathepsin S (unknown origin) expressed in Escherichia coli using Z-Val-Val-Arg-AMC as substrate assessed as inhibition constant for slowly reversible binding by fluorescence based assay
Target sequence in this assay (P25774 whole entry): as above

[12] = Stability of compound at pH 4 assessed as compound remaining measured after 24 hrs; type: physicochemical; conditions: buffer, pH 4, 24 h
[13] = Oral bioavailability in rat; type: ADME, organism-based; conditions: in vivo
[14] = Stability of compound at pH 7.4 assessed as compound remaining measured after 24 hrs; type: physicochemical; conditions: buffer, read-out: Stability
[15] = Stability of compound at pH 4 assessed as compound remaining measured after 2 hrs; type: physicochemical; conditions: buffer, pH 4, 2 h

Chain of Procathepsin L (P07711 whole entry): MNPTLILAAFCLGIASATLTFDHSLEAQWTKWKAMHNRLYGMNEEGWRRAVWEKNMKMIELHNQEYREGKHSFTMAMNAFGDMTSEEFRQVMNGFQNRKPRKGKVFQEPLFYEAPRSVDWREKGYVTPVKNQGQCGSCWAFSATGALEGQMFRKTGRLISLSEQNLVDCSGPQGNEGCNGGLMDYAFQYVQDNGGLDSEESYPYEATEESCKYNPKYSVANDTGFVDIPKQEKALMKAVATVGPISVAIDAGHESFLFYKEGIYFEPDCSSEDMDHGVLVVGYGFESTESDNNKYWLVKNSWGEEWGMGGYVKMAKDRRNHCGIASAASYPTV

SMILES | Ki [2] | Ki [5] | Ki [6] | Papp at 7 h [8] | further results
O=C(CCl)[C@H](COCc1ccccc1)NC(=O)[C@H](CC1CCCCC1)NC(=O)N1CCOCC1 ({Morpholide-CO}-[Cha]-Ser(Bn)-CH2Cl) | 0.5 nM |  |  |  | K [1]: 4.3 10^6/M/s; Kinact [3]: 0.002 s⁻¹
O=C(OCC(=O)[C@H](COCc1ccccc1)NC(=O)[C@H](CC1CCCCC1)NC(=O)N1CCOCC1)c1ccccc1 | 25 nM | > 600 nM | > 2550 nM |  | Activity [4]: Active
CN1CCN(C(=O)N[C@@H](Cc2ccccc2)C(=O)N[C@H](/C=C/S(=O)(=O)c2ccccc2)CCc2ccccc2)CC1 [K-777] |  |  |  |  | Ki [7]: 13 nM
N#C[C@H](CCc1ccccc1)NC(=O)[C@H](CC1CCCCC1)NC(=O)c1ccncc1 | 13 nM | 1460 nM | 1670 nM | 2.5 ×10⁻⁶ cm/s | 
CS(=O)(=O)C[C@H](N[C@@H](c1ccc(F)cc1)C(F)(F)F)C(=O)N[C@H](C#N)COCc1ccccc1 | 2.4 nM | 1950 nM | 157 nM |  | 
N#CC1(NC(=O)[C@H](CC2CCCCC2)NC(=O)c2ccncc2)CC1 | 13 nM | 716 nM | > 12000 nM |  | 
CS(=O)(=O)C[C@H](N[C@@H](c1ccc(F)cc1)C(F)(F)F)C(=O)NC1(C#N)CC1 | 1 nM | 7110 nM | 1670 nM |  | Activity [4]: inactive; Ratio Ki [9]: 1670
N#C[C@H](COCc1ccccc1)NC(=O)[C@H](CC1CCCCC1)N[C@@H](c1ccc(F)cc1)C(F)(F)F | 11 nM | > 10000 nM | > 12000 nM |  | 
O=C[C@H](COCc1ccccc1)NC(=O)[C@H](CC1CCCCC1)NC(=O)N1CCOCC1 ({Morpholide-CO}-[Cha]-Ser(Bn)-aldehyde) | 0.039 nM | 17 nM | 64 nM | 4.5 ×10⁻⁶ cm/s | Ratio Ki [9]: > 1600; Ratio Ki [10]: > 435; Ki [11]: 0.016 nM
N#C[C@H](CCc1ccccc1)NC(=O)[C@H](CC1CCCCC1)N[C@@H](c1ccc(F)cc1)C(F)(F)F | 146 nM | > 10000 nM | > 12000 nM |  | 
O=C(N/N=C(\CS(=O)(=O)c1ccccc1)[C@H](COCc1ccccc1)NC(=O)[C@H](CC1CCCCC1)NC(=O)N1CCOCC1)c1ccccc1 | 989 nM | > 2500 nM | > 12 nM |  | Stability [12]: 13%
N#C[C@H](CCc1ccccc1)NC(=O)[C@H](CC1CCCCC1)NC(=O)N1CCOCC1 |  | 2540 nM | 7850 nM | 6 ×10⁻⁶ cm/s | 
O=C(CS(=O)(=O)c1ccccc1)[C@H](COCc1ccccc1)NC(=O)[C@H](CC1CCCCC1)NC(=O)N1CCOCC1 | 331 nM | > 600 nM | > 510 nM | 0.8 ×10⁻⁶ cm/s | Activity [4]: inactive; Ki [11]: 43 nM
CNC(=O)O[C@H]1COc2ccc(N3CCN(C4COC4)CC3)cc2[C@@H]1NC(=O)c1ccc(F)cc1 |  |  |  |  | bioavailability [13]: 92%
N#C[C@H](COCc1ccccc1)NC(=O)[C@H](CC1CCCCC1)NC(=O)C1CCOCC1 | 61 nM | 5040 nM | > 12000 nM | 4.1 ×10⁻⁶ cm/s | 
N#CC1(NC(=O)[C@H](CC2CCCCC2)NC(=O)C2CCOCC2)CC1 | 117 nM | 1670 nM | > 12000 nM | 0.1 ×10⁻⁶ cm/s | 
N#C[C@H](CCc1ccccc1)NC(=O)[C@H](CC1CCCCC1)NC(=O)C1CCOCC1 | 382 nM | 6340 nM | > 12000 nM | 6.6 ×10⁻⁶ cm/s | 
N#CC1(NC(=O)[C@H](CC2CCCCC2)N[C@@H](c2ccc(F)cc2)C(F)(F)F)CC1 | 20 nM | 1500 nM | > 12000 nM | 4.9 ×10⁻⁶ cm/s | 
CS(=O)(=O)C[C@H](N[C@@H](c1ccc([N+](=O)[O-])cc1)C(F)(F)F)C(=O)N[C@H](C#N)CCc1ccccc1 | 3.6 nM | > 10000 nM | 36 nM |  | Ratio Ki [10]: > 2780
N#C[C@H](COCc1ccccc1)NC(=O)[C@H](CC1CCCCC1)NC(=O)c1ccncc1 |  | 1020 nM | 1910 nM | 2 ×10⁻⁶ cm/s | 
O=C(CO)[C@H](COCc1ccccc1)NC(=O)[C@H](CC1CCCCC1)NC(=O)N1CCOCC1 | 67 nM | > 600 nM | > 2550 nM |  | Activity [4]: inactive
O=C(SCC(=O)[C@H](COCc1ccccc1)NC(=O)[C@H](CC1CCCCC1)NC(=O)N1CCOCC1)c1ccccc1 | 165 nM | > 3000 nM | > 10 nM |  | Activity [4]: inactive
N#C[C@H](COCc1ccccc1)NC(=O)[C@H](CC1CCCCC1)NC(=O)N1CCOCC1 |  | 543 nM | 1050 nM | 4.7 ×10⁻⁶ cm/s | 
C=CS(=O)(=O)C(=O)[C@H](COCc1ccccc1)NC(=O)[C@H](CC1CCCCC1)NC(=O)N1CCOCC1 | 3 nM |  |  |  | Activity [4]: Active; K [1]: 7.2 10^6/M/s; Kinact [3]: 0.02 s⁻¹
N#CC1(NC(=O)[C@H](CC2CCCCC2)NC(=O)N2CCOCC2)CC1 | 1.5 nM | 385 nM | > 12000 nM |  | 
O=C(N/N=C/[C@H](COCc1ccccc1)NC(=O)[C@H](CC1CCCCC1)NC(=O)N1CCOCC1)c1ccccc1 | 2.2 nM | 21 nM | 142 nM | 0.1 ×10⁻⁶ cm/s | remaining at 24 h [14]: 50%; Stability [12]: 80%; Stability [15]: 50%
CS(=O)(=O)C[C@H](N[C@@H](c1ccc([N+](=O)[O-])cc1)C(F)(F)F)C(=O)NC1(C#N)CC1 | 7.8 nM | > 10000 nM | > 12000 nM |  | Ratio Ki [9]: > 1500
CS(=O)(=O)C[C@H](N[C@@H](c1ccc([N+](=O)[O-])cc1)C(F)(F)F)C(=O)N[C@H](C#N)COCc1ccccc1 | 13 nM | > 10000 nM | 82 nM | 0.7 ×10⁻⁶ cm/s | 
